Results reported in article PMC12830989, “Subcellular glycan-mannose receptor binding kinetics correlate with myeloid cell function” (Nature Communications, 2025).
sCy5 = sulfo-Cy5

Key:
[1] = molecular target: T1, mannose receptor (MR) on CHO-MR cells (Mus musculus, UniProt Q61830); test: Glyco-PAINT-APP single-molecule glycan binding on CHO-MR cells; settings: Suppl. Fig 9, glycan SLP, median
T1 construct: expressed in transfected cells; host or cells: CHO (CHO-MR overexpression line, gift of Luisa Martinez-Pomares)
T1 sequence (Q61830 20-1456): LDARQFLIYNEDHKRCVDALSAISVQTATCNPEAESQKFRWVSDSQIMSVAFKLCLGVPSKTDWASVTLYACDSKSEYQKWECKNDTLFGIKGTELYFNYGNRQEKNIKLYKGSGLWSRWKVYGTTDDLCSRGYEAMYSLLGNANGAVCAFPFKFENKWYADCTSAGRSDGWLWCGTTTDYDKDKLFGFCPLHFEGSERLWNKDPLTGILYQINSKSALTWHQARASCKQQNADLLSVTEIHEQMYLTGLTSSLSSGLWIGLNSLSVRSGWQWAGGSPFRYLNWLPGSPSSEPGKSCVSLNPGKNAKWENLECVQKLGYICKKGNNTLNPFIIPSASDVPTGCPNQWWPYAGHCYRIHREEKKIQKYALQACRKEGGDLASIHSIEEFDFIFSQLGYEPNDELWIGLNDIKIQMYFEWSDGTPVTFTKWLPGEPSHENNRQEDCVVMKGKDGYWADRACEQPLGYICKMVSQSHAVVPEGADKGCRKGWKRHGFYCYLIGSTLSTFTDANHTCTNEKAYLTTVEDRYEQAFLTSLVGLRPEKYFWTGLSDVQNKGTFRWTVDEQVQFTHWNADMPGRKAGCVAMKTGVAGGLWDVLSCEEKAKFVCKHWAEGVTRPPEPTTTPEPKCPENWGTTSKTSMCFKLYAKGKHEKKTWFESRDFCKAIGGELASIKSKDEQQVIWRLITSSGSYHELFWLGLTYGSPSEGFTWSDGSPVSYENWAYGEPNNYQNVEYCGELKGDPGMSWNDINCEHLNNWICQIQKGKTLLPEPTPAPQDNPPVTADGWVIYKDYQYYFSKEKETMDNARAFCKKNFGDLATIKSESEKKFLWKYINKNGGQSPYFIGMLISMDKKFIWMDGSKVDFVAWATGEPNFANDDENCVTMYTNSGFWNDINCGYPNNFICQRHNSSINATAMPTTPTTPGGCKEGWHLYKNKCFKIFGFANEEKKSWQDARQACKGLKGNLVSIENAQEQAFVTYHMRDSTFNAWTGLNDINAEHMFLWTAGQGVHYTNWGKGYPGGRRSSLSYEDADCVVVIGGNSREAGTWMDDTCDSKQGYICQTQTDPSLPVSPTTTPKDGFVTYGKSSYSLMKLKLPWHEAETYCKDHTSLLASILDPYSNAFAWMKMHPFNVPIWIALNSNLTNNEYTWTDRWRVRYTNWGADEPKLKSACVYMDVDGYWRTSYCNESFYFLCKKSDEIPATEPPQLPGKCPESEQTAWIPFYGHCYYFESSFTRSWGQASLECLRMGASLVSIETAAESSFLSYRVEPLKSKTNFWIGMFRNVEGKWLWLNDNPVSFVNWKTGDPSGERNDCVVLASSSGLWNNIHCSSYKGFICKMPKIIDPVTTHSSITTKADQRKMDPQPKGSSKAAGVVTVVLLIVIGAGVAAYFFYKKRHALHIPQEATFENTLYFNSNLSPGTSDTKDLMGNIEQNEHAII
Protocol: (§1) Single molecule imaging was performed on a Nikon Ti2 N-STORM system equipped with TIRF module, Z piezo element, perfect focus system for axial drift correction and an OkoLab incubator with temperature and CO2 controller (37 °C and 5% CO2) for live-cell imaging. Recordings were acquired using the 647 nm excitation laser (160 mW, 1.9 kW/cm^2). Upon laser excitation, fluorescence was collected by a 100x 1.49 NA oil-immersion objective, passed through a quad-band dichroic mirror (97335 Nikon), and detected by a Hamamatsu ORCA Flash 4.0 CMOS camera with 160 nm pixel size. The signal was collected using the following settings: 512 × 512 pixel region, no binning, pixel depth 16-bit, exposure time 50 ms, live-cell observation and 2D-STORM (lens out), zoom 1x, lens x0.4, and for live-cell observation at 37 °C, the correction collar was set to position 8160.
(§2) 5 x 10^4 CHO-MR or 1 x 10^5 WT, MR^−/− BMDC or BMDM were seeded in 8-well glass-bottomed microscopy slides (Ibidi, 80827) in complete medium. After equilibration in the microscope incubator, fluorescent glycan was added at 5 nM for CHO-MR and 10 nM for BMDC or BMDM experiments. Then, cells were brought into focus using brightfield illumination and 2000 frames (at 50 ms intervals) were recorded within a single field-of-view at 40–60% of maximum 647 nm laser power using TIRF illumination. For indicated experiments, Cytochalasin D (Focus Biomolecules) was added to a final concentration of 10 µM for 30 min prior to acquisition.
(§3) Processing of recordings using Glyco-PAINT-APP was performed as described in a step-by-step procedure in the Supplementary Software Manual in the Supplementary Information and accompanying Supplementary Videos 1 and 2. For the TrackMate processing, a batch file (Experiment Info.csv) containing the experiment metadata and tracking parameters was created. Threshold values were set to 5, 10 or 15 such that no more than 1.500.000 spots were detected. Recordings were then processed in TrackMate using the ‘Run TrackMate Batch’ plugin provided by the Glyco-PAINT-APP. Through this plugin, spot detection and tracking by TrackMate[70] was performed as indicated in the batch file using the Simple LAP tracker algorithm with a maximum frame gap of 3, a max linking distance of 0.6 μm and a gap closing max distance of 1.2 μm. Tracks with only two spots were discarded. For the parameter sensitivity analysis, each tracking or spot detection was varied as indicated, whilst the others were kept at aforementioned values (Basis scenario).
(§4) With the Glyco-PAINT-APP utility ‘Generate Squares’, a grid of squares was overlaid, and kinetic properties for each square were calculated. Default parameters for grid processing are (deviations are mentioned in figure captions): Nr of Squares in row 20, Minimum Tracks to Calculate Tau 20, Min allowable R Squared 0.1, Min Required Density Ratio 2, Maximum Allowable Variability 10 and Neighbour Mode Free.
(§5) For every recording, a background track count was calculated by averaging the track count of the 40 (10% of the total number of squares) least dense squares. Only squares for which the track count exceeded the Min Required Density Ratio of 2 were considered (and the remaining ignored as background). For each square, the variability was calculated and only squares for which the variability was less than the Maximum Allowable Variability of 10 were considered. For squares meeting both the Minimum Required Density Ratio and Maximum Allowable Variability criteria, and containing at least the Minimum Tracks to Calculate Tau kinetic parameters, including kon, koff and MSD were calculated as in Riera et al.[10], or copied from the TrackMate Tracks table output (for velocity, displacement, and track duration).

[2] = system: bone-marrow derived mouse dendritic cells (BMDCs); test: Glyco-PAINT-APP single-molecule glycan binding on live WT BMDC; settings: for event density, dwell time and diffusion coefficient after CytD treatment: Cytochalasin D treated versus untreated; for koff−1 / kon: Suppl. Fig 9, glycan SLP, median; for population of squares with binding events of high mobility (high diffusion coefficient) and low event density (kon), uniquely present for WT cells: WT BMDC versus MR-/- BMDC, Fig 4a, b
Protocol: as §1, §2, §3, §4, §5

Row | koff−1 ([1]; CHO-MR + CytD) [ms] | kon ([1]; CHO-MR + CytD) [evts μm−2 sec−1] | koff−1 ([1]; CHO-MR) [ms] | kon ([1]; CHO-MR) [evts μm−2 sec−1] | Substance | event density, dwell time and diffusion coefficient after CytD treatment ([2]; BMDC) | koff−1 ([2]; BMDC + CytD) [ms] | kon ([2]; BMDC + CytD) [evts μm−2 sec−1] | koff−1 ([2]; BMDC) [ms] | kon ([2]; BMDC) [evts μm−2 sec−1] | population of squares with binding events of high mobility (high diffusion coefficient) and low event density (kon), uniquely present for WT cells [2]
1 | 144 | 7.1 | 79 | 2.8 | Ac-Lys(triMan)-TEG-Asp-Glu-Val-Ser-Gly-Leu-Glu-Gln-Leu-Glu-Ser-Ile-Ile-Asn-Phe-Glu-Lys-Leu-Ala-Ala-Ala-Ala-Ala-Lys(sCy5)-NH2 (DEVSGLEQLESIINFEKLAAAAAK; Ac-Lys(triMan)-TEG, sulfo-Cy5, C-amide; printed: Asp-Glu-Val-Ser-Gly-Leu-Glu-Gln-Leu-Glu-Ser-Ile-Ile-Asn-Phe-Glu-Lys-Leu-Ala-Ala-Ala-Ala-Ala-Lys) [1 Tri(4), monovalent trimannosylated OVA SLP with sulfo-Cy5] | increased significantly | 124 | 1.5 | 88 | 1 | 
2 | 85 | 8.2 | 91 | 6.2 | Ac-Lys(Man)-Gly-Lys(Man)-TEG-Asp-Glu-Val-Ser-Gly-Leu-Glu-Gln-Leu-Glu-Ser-Ile-Ile-Asn-Phe-Glu-Lys-Leu-Ala-Ala-Ala-Ala-Ala-Lys(sCy5)-NH2 ({Ac-K(Man)-Gly-K(Man)-TEG}-DEVSGLEQLESIINFEKLAAAAAK(sCy5)-NH2) [2 Mono(2), bivalent monomannosylated OVA SLP with sulfo-Cy5] |  | 81 | 3 | 96 | 2.4 | most prominent
3 | 108 | 4.6 | 117 | 5 | Ac-Lys(triMan)-Gly-Lys(triMan)-TEG-Asp-Glu-Val-Ser-Gly-Leu-Glu-Gln-Leu-Glu-Ser-Ile-Ile-Asn-Phe-Glu-Lys-Leu-Ala-Ala-Ala-Ala-Ala-Lys(sCy5)-NH2 (DEVSGLEQLESIINFEKLAAAAAK; two Lys(triMan), TEG, sulfo-Cy5, C-amide; printed: Asp-Glu-Val-Ser-Gly-Leu-Glu-Gln-Leu-Glu-Ser-Ile-Ile-Asn-Phe-Glu-Lys-Leu-Ala-Ala-Ala-Ala-Ala-Lys) [2 Tri(5), bivalent trimannosylated OVA SLP with sulfo-Cy5] | increased significantly | 112 | 7 | 69 | 1.1 | not
4 | 115 | 8.9 | 117 | 5.2 | Ac-Lys(Man)-Lys(Man)-Lys(Man)-Lys(Man)-Lys(Man)-Lys(Man)-TEG-Asp-Glu-Val-Ser-Gly-Leu-Glu-Gln-Leu-Glu-Ser-Ile-Ile-Asn-Phe-Glu-Lys-Leu-Ala-Ala-Ala-Ala-Ala-Lys(sCy5)-NH2 ({Ac-K(Man)-K(Man)-K(Man)-K(Man)-K(Man)-K(Man)-TEG}-DEVSGLEQLESIINFEKLAAAAAK(sCy5)-NH2) [6 Mono(3), hexavalent monomannosylated OVA SLP with sulfo-Cy5] |  | 116 | 2 | 76 | 2.1 | most prominent
5 | 63 | 3.9 | 68 | 3.8 | Ac-Lys(Man)-TEG-Asp-Glu-Val-Ser-Gly-Leu-Glu-Gln-Leu-Glu-Ser-Ile-Ile-Asn-Phe-Glu-Lys-Leu-Ala-Ala-Ala-Ala-Ala-Lys(sCy5)-NH2 ({Ac-K(Man)-TEG}-DEVSGLEQLESIINFEKLAAAAAK(sCy5)-NH2) [1 Mono(1), monovalent monomannosylated OVA SLP with sulfo-Cy5] |  | 98 | 4.3 | 87 | 0.9 | not
6 | 85 | 4.8 | 101 | 6.2 | Ac-Lys(triMan)-Lys(triMan)-Lys(triMan)-Lys(triMan)-Lys(triMan)-Lys(triMan)-TEG-Asp-Glu-Val-Ser-Gly-Leu-Glu-Gln-Leu-Glu-Ser-Ile-Ile-Asn-Phe-Glu-Lys-Leu-Ala-Ala-Ala-Ala-Ala-Lys(sCy5)-NH2 (DEVSGLEQLESIINFEKLAAAAAK; six Lys(triMan), TEG, sulfo-Cy5, C-amide; printed: Asp-Glu-Val-Ser-Gly-Leu-Glu-Gln-Leu-Glu-Ser-Ile-Ile-Asn-Phe-Glu-Lys-Leu-Ala-Ala-Ala-Ala-Ala-Lys) [6 Tri(6), hexavalent trimannosylated OVA SLP with sulfo-Cy5] |  | 74 | 1.6 | 68 | 2.3 | most prominent
